Laboratory results as given in US10947323B2, “Capped cyclodextrin-hydrophobic moiety conjugate, cyclodextrin supramolecular polymer, and cyclodextrin-siRNA complex and method of synthesis thereof” (SORBONNE UNIVERSITE, priority 2016, dated 2021).

Tests used:
[1] = test system: HEK293 cells; test: Toxicity test (cell viability, ATP activity, CellTiter Glo 2.0); type: cell-based, human; conditions: over the range of N/P ratios, 24 hours
Experimental: In order to evaluate the toxicity of compound 11 of example 1 on HEK293 cells, the kit CellTiter Glo 2.0 (Promega) has been used.
One day before the transfection, the cells HEK293 are deposited in a 96-wells plaque: 1·10^3 cell/wells and then treated with 200 μL of DMEM, SVF 10%, without antibiotics, in order that the cells reach a 30-50% of confluence the day after.
The day of the transfection, the cells are incubated with the complex siRNA-cyclodextrin conjugate obtained in example 1 and Lipofectamine 2000.siRNA at 37° C. during 24 hours until analysis of the cells viability (ATP activity) using a kit CellTiter Glo 2.0.
For this aim 100 μL/wells of CellTiter Glo 2.0. reactant are added to the cells before the plaque be analyzed by luminescence.

[2] = test system: siRNA; test: Agarose gel electrophoresis of siRNA complex formation at increasing N/P ratios; type: binding; conditions: at low N/P ratios; 100 V, 40 min
Experimental: In order to characterize the formation of complexes between the siRNA and the compound 11 of the invention obtained in example 1, an electrophorese technique on agarose gel has been used.
The molecule of siRNA and of compound of example 1 have been migrated according to N/P previously chosen.
A solution of 17 μL of siRNA-compound of example 1 is prepared in sterile water and incubated during 20 minutes at ambient temperature.
Then, this solution is deposited on the gel with 3 μL of bromophenol blue before launching the migration: 100 V, 40 min.
Third, thanks to the experiment with agarose electrophoresis gel, it has been shown that capped cyclodextrine-adamantane conjugate are able to interact and to complex siRNA. Indeed, capped cyclodextrine-adamantane complex formation was evaluated at increasing N/P ratios using agarose gel electrophoresis. (FIG. 3)
N/P ratio corresponds to the amount of protonated aminated residue of the cationic species divided by the amount of phosphate residues coming from the nucleic acids.^14 This ratio enables to compare the efficiency of a cationic compound to be complexed with nucleic acids. ^14 Pharmaceutics. 2011, 3, 125-140

[3] = test system: firefly luciferase GL3 expression in HEK293 cells; test: KnockDown test of the luciferase GL3 gene (siRNA transfection, One-Glo luminescence); type: cell-based, human; conditions: siRNA complexes, N/P ratio of 1190, 24 hours, untransfected cells = 100% expression
Experimental: The cell line to be transfected is a cell line of human embryonic kidney 293 cells (HEK293). This cell line is cultivated with a DMEM medium to which SVF (10%) is added.
The cultures are made in an incubator at 37° C., 5% of CO2. The cell line HEK293 express constitutively the firefly luciferase GL3.
The HEK293 cells are deposited in a 96 wells plaque 1·10^3 cell/wells.
The siRNA which is used is the luciferase GL3 siRNA.
Transfection of cell line HEK293 with the siRNA directed against the firefly luciferase GL3 with as vector of transfection the […] obtained in example 1 or Lipofectamine 2000 (used as a positive reference of transfection) has been carried out.
The efficacy of transfection on the cells has been evaluated by a method of luminescence.
One day before the transfection, the HEK293 cells are deposited in a 96 wells plaque: 1·10^3 cell/wells treated in 200 μL of DMEM, SVF 10%, without antibiotics, in order that the cells reach a 30-50% of confluence the day after.
The day of the transfection, the 200 μL/wells of medium are withdrawn. […]
This latter is incubated at 37° C. during 24 hours until the analysis by luminescence of the KD of the gene of the luciferase (Kit One-Glo luciferase assay (Promega)).
For this aim, 100 μL/wells of reactants are added to the cells before the plaque be analyzed by luminescence.

- binding (complexation) of siRNA, no migration of siRNA in gel [2]: complete binding of siRNA
Compound: OCC1O[C@@H]2O[C@@H]3C(CO)O[C@H](O[C@@H]4C5CN(CCC67CC8CC(CC(C8)C6)C7)CCCCNCC6O[C@H](O[C@@H]7C(CO)O[C@H](O[C@H]1C(O)C2O)C(O)C7O)C(O)C(O)[C@@H]6O[C@H]1OC(CO)[C@@H](O[C@H]2OC(CO)[C@@H](O[C@@H](O5)C(O)C4O)C(O)C2O)C(O)C1O)C(O)C3O (stereo partly drawn) [compose 11]
- cytotoxicity of transfection with siRNA complexes [1]: no cytotoxicity
- knockdown of GL3 luciferase expression [3]: ≤ 50%
